Measured values: paper PMC2504689 (Phytotherapy research : PTR, 2008)
Values after ≈ are worked out from the molar mass of the structure shown.

Experiments:
[1] = test system: M. tuberculosis Erdman (ATCC 35801); assay: Microplate Alamar Blue Assay; assay type: cell-based, Mycobacterium tuberculosis; settings: for SI (selectivity index = IC50/MIC), Erdman: Vero IC50 / MIC Erdman, limited by 120 μg/ml cytotoxicity cutoff; for MIC, Erdman: MABA, concentration giving ≥ 90% inhibition, 7 days, 37 °C, triplicate
[2] = test system: M. tuberculosis H37Rv (ATCC 27294); assay: Microplate Alamar Blue Assay; assay type: cell-based, Mycobacterium tuberculosis; settings: for SI (selectivity index = IC50/MIC), H37Rv: Vero IC50 / MIC H37Rv, limited by 120 μg/ml cytotoxicity cutoff; for MIC, H37Rv: MABA, concentration giving ≥ 90% inhibition, 7 days, 37 °C, triplicate
[3] = assay type: cell-based, African green monkey; settings: African green monkey
[4] = test system: Mycobacterium tuberculosis (H37Rv and ERDMAN); assay: MABA, result stated for both strains without assignment; assay type: cell-based
[5] = test system: Vero cells; assay type: cell-based, African green monkey; settings: Vero cells, 72 hours; cutoff 120 μg/ml

SMILES	SI (selectivity index = IC50/MIC), Erdman [1]	SI (selectivity index = IC50/MIC), H37Rv [2]	IC50 at 72 h [3]	MIC, Erdman [1]	MIC, H37Rv [2]	MIC [4]	Cytotoxicity IC50 [5]
CO[C@H]1/C=C/O[C@@]2(C)Oc3c(C)c(O)c4c(O)c(c(/C=N/N5CCN(C)CC5)c(O)c4c3C2=O)NC(=O)/C(C)=C\C=C\[C@H](C)[C@H](O)[C@@H](C)[C@@H](O)[C@@H](C)[C@H](OC(C)=O)[C@@H]1C [RMP, Rifampin, reference compound]	2232	1860	112 µg/mL (≈ 136 µM)	–	–	–	–
CCCCCCC/C=C\C(O)C#CC#CC(=O)CCOC (stereo not drawn) [Compound 5, 8-hydroxy-1-methoxy-(Z)-9-heptadecene-4,6-diyn-3-one]	–	–	> 120 µg/mL	above 60 μg/mL	above 60 μg/mL	> 60 µg/mL	–
CCCCCCC/C=C\[C@H](O)C#CC#C[C@@H](O)CC [Compound 3, oplopandiol]	>2	>2	> 120 µg/mL	49.5 µg/mL (≈ 189 µM)	50.2 µg/mL (≈ 191 µM)	–	–
C=CC(O)C#CC#CC(O)C1OC1CCCCCCC (stereo not drawn) [Compound 4, heptadeca-1-ene-9,10-epoxy-4,6-diyne-3,8-diol]	–	–	–	–	–	–	>120 µg/mL
C=C[C@@H](O)C#CC#C[C@@H](O)/C=C\CCCCCCC [Compound 1, falcarindiol]	>19	>4	> 120 µg/mL	6.0 µg/mL (≈ 23 µM)	26.7 µg/mL (≈ 103 µM)	1.4 to 26.7 µg/mL (≈ 5.38 to 103 µM)	–
C=CC(O)C#CC#CC(O)/C=C\CCCCCCCCOC(C)=O (stereo not drawn) [Compound 2, 9Z,17-octadecadiene-12,14-diyne-1,11,16-triol,1-acetate]	> 100	>4	–	1.4 µg/mL (≈ 4.21 µM)	25.3 µg/mL (≈ 76.1 µM)	–	>120 µg/mL
